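A five-concentration, 48-hour dose response in 96-well plates underlies each endpoint, interpolated linearly between surrounding concentrations. GI50 marks 50% less growth. TGI: total growth inhibition.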
Columns and labels:
Experiment in all cases: NCI-60 cell line screen, 48 h
[1] = tested on: 786-0 renal
[2] = tested on: M14 melanoma
[3] = tested on: NCI-H460 lung
[4] = tested on: SF-539 CNS
[5] = tested on: SW-620 colon
[6] = tested on: HOP-92 NSCLC
[7] = tested on: HS 578T breast
[8] = tested on: SF-268 CNS
[9] = tested on: T-47D breast
[10] = tested on: IGROV1 ovarian

| Compound | TGI [1] [µM] | TGI [2] [µM] | TGI [3] [µM] | TGI [4] [µM] | TGI [5] [µM] | GI50 [1] [µM] | GI50 [6] [µM] | TGI [6] [µM] | GI50 [7] [µM] | TGI [7] [µM] | GI50 [2] [µM] | GI50 [3] [µM] | GI50 [8] [µM] | TGI [8] [µM] | GI50 [4] [µM] | GI50 [5] [µM] | GI50 [9] [µM] | TGI [9] [µM] | GI50 [10] [µM] | TGI [10] [µM] |
| --- | --- | --- | --- | --- | --- | --- | --- | --- | --- | --- | --- | --- | --- | --- | --- | --- | --- | --- | --- | --- |
| CN=C1CN=C(OP(=O)(N2CCOCC2)N2CCOCC2)c2cc(Cl)ccc2N1 | > 100 | > 100 | > 100 | > 100 | > 100 | – | – | – | – | – | – | – | – | – | – | – | – | – | – | – |
| O=[N+]([O-])c1ccc(N=Nc2c(Cl)cc(O)cc2Cl)cc1 | 9.36 | 4.86 | 4.77 | 30.6 | 10.3 | 2.22 | 0.285 | 2.01 | 1.11 | 9.06 | 1.95 | 1.41 | 1.18 | 7.73 | 3.1 | 1.6 | 0.657 | 5.46 | – | – |
| CC[O-].CC[O-].O=C([CH-]C(=O)c1ccccc1)CCCCCCC(=O)[CH-]C(=O)c1ccccc1.[Ti+4] | > 100 | > 100 | > 100 | > 100 | > 100 | > 100 | > 100 | > 100 | – | – | > 100 | > 100 | > 100 | > 100 | > 100 | > 100 | – | – | > 100 | > 100 |
| [Co].[O-]c1cccnc1C=Nc1ccccc1.[OH3+] | > 100 | > 100 | > 100 | > 100 | > 100 | > 100 | 28.7 | > 100 | – | – | > 100 | > 100 | 99.3 | > 100 | > 100 | > 100 | – | – | > 100 | > 100 |
| CCC[CH2][Sn]1([CH2]CCC)[O]CC[S]1 | 1.7 | 2.68 | 3.72 | 2.03 | 1.11 | 0.516 | 0.656 | 2.19 | – | – | 0.872 | 1.77 | 0.363 | 1.44 | 0.736 | 0.268 | – | – | 1.55 | 4.64 |
| CO/C=C(\Br)c1ccc2c(c1)OCO2 | > 100 | > 100 | – | > 100 | > 100 | – | – | > 100 | – | – | – | – | – | > 100 | – | – | – | – | – | > 100 |
| COc1c(C)c(OC)c(C(=O)CC(C)C)c(OC)c1C | > 100 | > 100 | – | > 100 | > 100 | – | – | > 100 | – | > 100 | – | – | – | > 100 | – | – | – | > 100 | – | > 100 |
| COc1ccc(C2=NN(C(C)=O)C(c3ccc(Oc4ccnc5cc(Cl)ccc45)c(OC)c3)C2)cc1 (configuration not stated) | 26.8 | > 100 | – | – | > 100 | 4.52 | 3.03 | 15.4 | 5.15 | > 100 | 93 | – | 9.28 | > 100 | – | > 100 | 5.54 | 34.9 | 6.29 | > 100 |
| CC(=O)[CH-]C(C)=O.CC(=O)[CH-]C(C)=O.[Cl-].[O]=[V] | 42.9 | 31 | > 100 | 37.5 | > 100 | 20 | – | – | – | – | 11.4 | 46.2 | – | – | 17.5 | 38.9 | – | – | 11.1 | 64.2 |
| Cc1nc2ccccc2c(/C=C/c2ccccc2)c1C(=O)/C=C/c1ccc(C(F)(F)F)cc1 | 2.71 | 3.94 | – | 3.27 | 3.49 | 1.22 | – | – | – | – | 1.6 | – | – | – | 1.82 | 1.02 | 1.18 | 3.88 | 0.414 | 2.02 |
| COc1ccc(-c2oc3c(OC)c(OC)c(OC)c(O)c3c(=O)c2OC)cc1O | 11.3 | – | 0.138 | 0.101 | > 100 | < 0.01 | – | – | – | – | < 0.01 | < 0.01 | < 0.01 | 2.82 | – | < 0.01 | – | – | 0.0358 | 52.1 |
| O=C(c1ccc2ccccc2c1)c1c(C(F)(F)F)n([O-])c2cc(C(F)(F)F)ccc2[n+]1=O | 3.15 | 3.1 | 3.44 | 3.23 | – | 1.62 | 1.39 | 2.79 | – | > 22.2 | 1.65 | 1.66 | 1.56 | 3.05 | 1.71 | – | 1.31 | 3.38 | 1.71 | 3.36 |
| C/C(=C\C(C[C@](C)(O)C(O)CCC#C[Si](C)(C)C)S(=O)(=O)c1ccccc1)CC/C=C/CO[Si](C)(C)C(C)(C)C (some centres not stated) | 31.5 | 34 | 27 | 37 | 35.3 | – | – | 25.5 | – | – | – | – | – | – | – | – | – | – | – | 41 |
| O=C(CC1(O)C(=O)Nc2ccccc21)c1ccc(Cl)cc1Cl (configuration not stated) | > 100 | > 100 | – | > 100 | > 100 | – | – | > 100 | – | – | – | – | – | > 100 | – | – | – | – | – | > 100 |
| C=CCOc1ccc(N)c([N+](=O)[O-])c1 | > 100 | > 100 | – | > 100 | > 100 | – | – | – | – | > 100 | – | – | – | > 100 | – | – | – | > 100 | – | > 100 |
| COc1ccc2c(c1)C(=O)c1c-2c(N2CCN(C(=O)CCNCCNCCN)CC2)nc2ccccc12 | 6.62 | 3.83 | 5.42 | – | 3.65 | 2.51 | 2.44 | 10.6 | 14.2 | 46.5 | 2.03 | 2.4 | 4.97 | 20.3 | – | 1.86 | 3.43 | 15.6 | 5.89 | 32.7 |
| N#CC1(N2CCCC2)CCC2(CC1)OCCO2 | > 100 | > 100 | > 100 | > 100 | > 100 | – | – | > 100 | – | – | – | – | – | > 100 | – | – | – | – | – | > 100 |
| CN(C)CCN(C)C(=O)c1cccc2cccc(C(=O)O)c12 | > 100 | > 100 | > 100 | > 100 | > 100 | – | – | > 100 | – | – | – | – | – | > 100 | – | – | – | – | – | > 100 |
